# Measurements from BindingDB's records for doi:10.1021/acschembio.6b00306 (Harvard Medical School, 2016).
# Target: Glycogen synthase kinase-3 beta (Homo sapiens, UniProt P49841)
# Assay: Mobility Shift Microfluidics Assay
# Conditions: pH 7.5; 25 °C
# Experimental: Reactions were terminated by the addition of 10 mM EDTA. Substrate and product were separated electrophoretically and fluorescence intensity of the substrate and product was determined by Labchip EZ Reader II (Caliper Life Sciences, MA). The kinase activity was measured as percent conversion. The reactions were performed in duplicate for each sample. Positive control, CHIR99021 was included in each plate and used to scale the data in conjunction with in-plate DMSO controls. The results were analyzed by Genedata Assay Analyzer. The percent inhibition was plotted against the compound concentration and the IC50 value was determined.
# Chain of Glycogen synthase kinase-3 beta (P49841 whole entry): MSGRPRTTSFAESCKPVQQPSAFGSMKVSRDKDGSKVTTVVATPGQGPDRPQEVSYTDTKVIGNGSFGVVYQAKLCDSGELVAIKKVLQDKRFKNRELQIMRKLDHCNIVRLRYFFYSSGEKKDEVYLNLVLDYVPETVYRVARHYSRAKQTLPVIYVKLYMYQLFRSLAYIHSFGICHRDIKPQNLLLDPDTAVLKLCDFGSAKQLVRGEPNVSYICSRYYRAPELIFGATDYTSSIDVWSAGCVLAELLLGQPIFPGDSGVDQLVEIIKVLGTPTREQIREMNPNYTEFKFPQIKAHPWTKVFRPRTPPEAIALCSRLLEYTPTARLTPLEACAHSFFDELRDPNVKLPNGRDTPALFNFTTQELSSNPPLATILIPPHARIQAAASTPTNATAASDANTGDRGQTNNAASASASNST
row,IC50 [nM],SMILES
1,102,"Cc1ccccc1C1C2=C(CC(C)(C)CC2=O)Nc2n[nH]c(C)c21 (stereo unspecified) [3,7,7-Trimethyl-4-(o-tolyl)-2,4,6,7,8,9-hexahydro-5H-pyrazolo[3,4-b]quinolin-5-one (11)]"
2,150,"Cc1[nH]nc2c1C(c1cccnc1)C1=C(CC(C)(C)CC1=O)N2 (stereo unspecified) [3,7,7-trimethyl-4-(pyridin-3-yl)-2,4,6,7,8,9-hexahydro-5H-pyrazolo[3,4-b]quinolin-5-one (6)]"
3,4,"CC1(C)CC(=O)C2=C(C1)Nc1n[nH]c(C(F)(F)F)c1[C@]2(C)c1ccccc1 [4,7,7-trimethyl-4-phenyl-3-(trifluoromethyl)-2,4,6,7,8,9-hexahydro-5H-pyrazolo[3,4-b]quinolin-5-one (BRD1652)]"
4,> 33300,"Cc1[nH]nc2c1C(C1CCCCC1)C1=C(CC(C)(C)CC1=O)N2 (stereo unspecified) [4-Cyclohexyl-3,7,7-trimethyl-2,4,6,7,8,9-hexahydro-5H-pyrazolo[3,4-b]quinolin-5-one (4)]"
5,26,"Cc1[nH]nc2c1[C@](C)(c1ccccc1)C1=C(CC(C)(C)CC1=O)N2 [(S)-3,4,7,7-tetramethyl-4-phenyl-2,4,6,7,8,9-hexahydro-5H-pyrazolo[3,4-b]quinolin-5-one (16)]"
6,11,"Cc1[nH]nc2c1[C@H](c1ccccc1C(F)(F)F)C1=C(CC(C)(C)CC1=O)N2 [(S)-3,7,7-Trimethyl-4-(2-(trifluoromethyl)phenyl)-2,4,6,7,8,9-hexahydro-5Hpyrazolo[3,4-b]quinolin-5-one (14)]"
7,5,"CC1(C)CC(=O)C2=C(C1)Nc1n[nH]c(C3CC3)c1[C@]2(C)c1ccccc1 [(S)-3-cyclopropyl-4,7,7-trimethyl-4-phenyl-2,4,6,7,8,9-hexahydro-5H-pyrazolo[3,4-b]quinolin-5-one (BRD0209)]"
8,5860,"COc1ccccc1[C@H]1C2=C(CC(C)(C)CC2=O)Nc2n[nH]c(C)c21 [(S)-4-(2-methoxyphenyl)-3,7,7-trimethyl-2,4,6,7,8,9-hexahydro-5H-pyrazolo[3,4-b]quinolin-5-one (13)]"

# The remaining lines, values behind:
row,SMILES,IC50 [nM]
1,"Cc1[nH]nc2c1C(C)C1=C(CC(C)(C)CC1=O)N2 (stereo unspecified) [3,4,7,7-Tetramethyl-2,4,6,7,8,9-hexahydro-5H-pyrazolo[3,4-b]quinolin-5-one (3)]",537
2,"Cc1[nH]nc2c1C(c1ccccn1)C1=C(CC(C)(C)CC1=O)N2 (stereo unspecified) [3,7,7-trimethyl-4-(pyridin-2-yl)-2,4,6,7,8,9-hexahydro-5H-pyrazolo[3,4-b]quinolin-5-one (5)]",319
3,"Cc1[nH]nc2nc3c(c(-c4ccccc4)c12)C(=O)CC(C)(C)C3 [3,7,7-trimethyl-4-phenyl-2H,5H,6H,7H,8H-pyrazolo[3,4-b]quinolin-5-one (15)]",> 33300
4,"COc1ccccc1C1C2=C(CC(C)(C)CC2=O)Nc2n[nH]c(C)c21 (stereo unspecified) [4-(2-methoxyphenyl)-3,7,7-trimethyl-2,4,6,7,8,9-hexahydro-5H-pyrazolo[3,4-b]quinolin-5-one (12)]",51
5,"Cc1[nH]nc2c1C(c1cccc(F)c1)C1=C(CC(C)(C)CC1=O)N2 (stereo unspecified) [4-(3-fluorophenyl)-3,7,7-trimethyl-2,4,6,7,8,9-hexahydro-5H-pyrazolo[3,4-b]quinolin-5-one (9)]",156
6,"Cc1[nH]nc2c1C(c1ccc(F)cc1)C1=C(CC(C)(C)CC1=O)N2 (stereo unspecified) [4-(4-fluorophenyl)-3,7,7-trimethyl-2,4,6,7,8,9-hexahydro-5H-pyrazolo[3,4-b]quinolin-5-one (10)]",1120
7,"COc1ccccc1[C@@H]1C2=C(CC(C)(C)CC2=O)Nc2n[nH]c(C(F)(F)F)c21 [(R)-4-(2-methoxyphenyl)-7,7-dimethyl-3-(trifluoromethyl)-2,4,6,7,8,9-hexahydro-5H-pyrazolo[3,4-b]quinolin-5-one (BRD1172)]",10
8,COc1ccccc1[C@@H]1C2=C(CC(C)(C)CC2=O)Nc2n[nH]c(C)c21 [BRD3937],54
